Results reported in PMC7646200 (Xenobiotica; the fate of foreign compounds in biological …, 2020).
Entries after “also recorded” stand apart in the source; their conditions may differ. Read-outs that look alike come from different tables or passages of the source.

What was measured:
[1] = Sulfonation of 7-hydroxycoumarin derivatives by rat liver cytosol; conditions: male, Wistar, rat, pH 7.4
[2] = test system: rat liver cytosol; assay: as above; conditions: rat liver cytosol; for sulfonation efficiency, intrinsic clearance (Vmax/Km): rank among species; for Vmax: value (95 % confidence interval)
[3] = Sulfonation of 7-hydroxycoumarin derivatives by pig liver cytosol; conditions: female, pig, liver cytosol, pH 7.4
[4] = test system: pig liver cytosol; assay: as above; conditions: pig liver cytosol; value (95 % confidence interval)
[5] = Sulfonation of 7-hydroxycoumarin derivatives by dog liver cytosol; conditions: both, Beagle, dog, liver cytosol, pH 7.4
[6] = test system: dog liver cytosol; assay: as above; conditions: for Vmax: value (95 % confidence interval); for intrinsic clearance (Vmax/Km): rank among species; for intrinsic clearance relative to the highest intrinsic clearance value: dog cytosol, highest value = 1 by rat cytosol
[7] = Sulfonation of 7-hydroxycoumarin derivatives by human liver cytosol; conditions: male, human, liver cytosol, pH 7.4
[8] = test system: human liver cytosol; assay: as above; conditions: human liver cytosol; value (95 % confidence interval)
[9] = test system: mouse liver cytosol; assay: Sulfonation of 7-hydroxycoumarin derivatives by mouse liver cytosol; conditions: for sulfonation rate: 10 μM substrate; for Vmax: mouse liver cytosol, value (95 % confidence interval)
[10] = Sulfonation of 7-hydroxycoumarin derivatives by sheep liver cytosol; conditions: female, sheep, liver cytosol, pH 7.4
[11] = test system: sheep liver cytosol; assay: as above; conditions: sheep liver cytosol; for Vmax: value (95 % confidence interval)
[12] = Sulfonation of 7-hydroxycoumarin derivatives by rabbit liver cytosol; conditions: female, Dutch belted, rabbit, liver cytosol, pH 7.4
[13] = test system: rabbit liver cytosol; assay: as above; conditions: rabbit liver cytosol; for Vmax: value (95 % confidence interval); for sulfonation rate: 10 μM substrate
[14] = test system: mouse liver cytosol; conditions: pH 7.4
[15] = test system: dog liver cytosol; conditions: for Km: pH 7.4
[16] = in vitro; conditions: male, Wistar, rat, pH 7.4
[17] = Sulfonation of 7-hydroxycoumarin derivatives by mouse liver cytosol; conditions: DBA/2N/Kuo, mouse, pH 7.4
[18] = test system: liver cytosol of human, rat, mouse, rabbit, dog, pig and sheep; type: in vitro ADME; conditions: for sulfonation rate: 10 μM substrate, compared among derivatives over all species
[19] = test system: human liver cytosol; conditions: pH 7.4
[20] = test system: rat liver cytosol; conditions: pH 7.4
[21] = test system: pig liver cytosol; conditions: pH 7.4
[22] = test system: rabbit liver cytosol; conditions: pH 7.4
[23] = test system: sheep liver cytosol; conditions: pH 7.4

Km ([1]; liver cytosol) | sulfonation rate ([9]; male mouse liver cytosol) | Km ([17]; liver cytosol) | SMILES | sulfonation efficiency, intrinsic clearance (Vmax/Km) [2] | Vmax [2] | Km [3] | Vmax [4] | Km [5] | Vmax ([6]; dog liver cytosol) | Km [7] | Vmax [8] | Vmax [9] | Km [10] | Vmax [11] | Km [12] | Vmax [13] | Km [14] | intrinsic clearance (Vmax/Km) ([6]; dog liver cytosol) | sulfonation rate [13] | further results
 |  |  | COc1cc2ccc(=O)oc2cc1O [compound 3, 6-methoxy-7-hydroxycoumarin] |  | 540 (510–570) nmol/(min * g protein) | 0.11 µM | 15 (10–20) nmol/(min * g protein) | 0.22 µM | 420 (390–450) nmol/(min * g protein) | 3.5 µM | 155 (6–300) nmol/(min * g protein) | No MM | 0.13 µM | 260 (240–290) nmol/(min * g protein) | 0.99 µM | 160 (110–220) nmol/(min * g protein) | no MM |  |  | intrinsic clearance (Vmax/Km) [15]: highest; Km [16]: 0.65 µM
 | Slow | 0.11 µM | CCc1c(C)c2ccc(O)cc2oc1=O [compound 5, 3-ethyl-4-methyl-7-hydroxycoumarin] |  | No MM | 1.5 µM | 26 (12–40) nmol/(min * g protein) | 0.45 µM | 360 (260–460) nmol/(min * g protein) | 2.1 µM | 97 (76–120) nmol/(min * g protein) | 5.3 (3.8–6.8) nmol/(min * g protein) | 1.6 µM | 340 (220–460) nmol/(min * g protein) | 1.3 µM | 58 (21–95) nmol/(min * g protein) |  | highest |  | 
0.99 µM |  | 0.14 µM | CCc1c(C)c2ccc(O)c(C)c2oc1=O [compound 6, 3-ethyl-4,8-dimethyl-7-hydroxycoumarin] |  | 130 (73–180) nmol/(min * g protein) | 1.8 µM | 46 (22–69) nmol/(min * g protein) | 0.38 µM | 630 (280–980) nmol/(min * g protein) | 0.51 µM | 99 (74–130) nmol/(min * g protein) | 14 (11–17) nmol/(min * g protein) | 0.48 µM | 280 (190–370) nmol/(min * g protein) | 1.7 µM | 280 (200–350) nmol/(min * g protein) |  | highest |  | intrinsic clearance relative to the highest intrinsic clearance value [6]: > 70%; sulfonation rate ([6]; dog liver cytosol, 10 μM substrate): Slow
0.8 µM | Slow | 0.11 µM | Cc1c(C)c2ccc(O)c(C)c2oc1=O [compound 7, 3,4,8-trimethyl-7-hydroxycoumarin] | efficiently | 440 (170–710) nmol/(min * g protein) | 2.1 µM | 59 (28–91) nmol/(min * g protein) | 4.3 µM | 1300 (0–5200) nmol/(min * g protein) | 0.65 µM | 65 (54–76) nmol/(min * g protein) | 11 (6.8–14) nmol/(min * g protein) | 0.71 µM | 300 (250–350) nmol/(min * g protein) |  | No MM |  |  |  | 
 |  |  | Cc1ccc(-c2cc3ccc(O)cc3oc2=O)cc1 [compound 8, 3-(4-methylphenyl)-7-hydroxycoumarin] | efficiently | 170 (92–260) nmol/(min * g protein) | 2.8 µM | 12 (2–22) nmol/(min * g protein) | 0.17 µM | 56 (38–77) nmol/(min * g protein) | 0.27 µM | 6.5 (1.6–36) nmol/(min * g protein) | 26 (16–36) nmol/(min * g protein) | 5.3 µM | 154 (83–230) nmol/(min * g protein) | 7.3 µM | 310 (35–580) nmol/(min * g protein) |  |  | Slow | sulfonation rate [18]: highest sulfonation rates; Km [1]: 0.36 µM
 |  |  | O=c1oc2cc(O)ccc2cc1-c1ccc(O)cc1 [compound 9, 3-(4-hydroxyphenyl)-7-hydroxycoumarin] |  |  |  |  | 0.051 µM | 88 (65–120) nmol/(min * g protein) |  |  | 160 (130–190) nmol/(min * g protein) | 1.27 µM | 41 (26–56) nmol/(min * g protein) | 0.95 µM | 45 (30–62) nmol/(min * g protein) |  | highest |  | sulfonation rate ([2]; 10 μM substrate): Slow; intrinsic clearance relative to the highest intrinsic clearance value [6]: > 70%; Km [17]: 0.46 µM
 |  |  | CN(C)c1ccc(-c2cc3ccc(O)cc3oc2=O)cc1 [compound 12, 3-(4-dimethylaminophenyl)-7-hydroxycoumarin] |  | 520 (280–790) nmol/(min * g protein) | 2.8 µM | 210 (140–290) nmol/(min * g protein) | 0.44 µM | 600 (330–970) nmol/(min * g protein) | 0.39 µM | 180 (75–320) nmol/(min * g protein) | 230 (64–540) nmol/(min * g protein) | 0.89 µM | 440 (360–570) nmol/(min * g protein) | 0.67 µM | 290 (90–560) nmol/(min * g protein) |  | highest |  | sulfonation rate [18]: highest sulfonation rates; intrinsic clearance (Vmax/Km), similarity between species ([18]; compared with other 7-hydroxycoumarin derivatives): more similar between species; Km [1]: 0.67 µM; Km [17]: 0.49 µM
 |  |  | O=c1oc2cc(O)ccc2cc1-c1cccnc1 [compound 13, 3-(4-pyridin-3-yl)-7-hydroxycoumarin] | efficiently |  |  | 24 (17–31) nmol/(min * g protein) |  | 360 (330–430) nmol/(min * g protein) |  | 59 (53–71) nmol/(min * g protein) | 160 (110–200) nmol/(min * g protein) |  | 80 (0–230) nmol/(min * g protein) |  | 120 (100–210) nmol/(min * g protein) | 4.3 µM |  | Slow | Km [19]: 6.6 3.7–6.8) μM; Km [20]: 2.3 µM; Km [21]: 4 µM; Km [22]: 10 µM; Km [15]: 3.3 µM; Km [23]: 6.8 µM; sulfonation rate ([11]; 10 μM substrate): Slow
 |  |  | O=c1oc2cc(O)ccc2cc1-n1cncn1 [compound 14, 3-(1H-1,2,4-tirazol-1-yl)-7-hydroxycoumarin] | efficiently | 230 (200–260) nmol/(min * g protein) |  | 39 (13–65) nmol/(min * g protein) |  | 200 (180–220) nmol/(min * g protein) |  | 69 (55–84) nmol/(min * g protein) | 78 (69–88) nmol/(min * g protein) |  | 220 (93–350) nmol/(min * g protein) |  | 32 (25–39) nmol/(min * g protein) | 4.9 µM |  | Slow | Km [19]: 4.7 µM; Km [20]: 1.3 µM; Km [21]: 3 µM; Km [22]: 2.8 µM; Km [15]: 3.9 µM; Km [23]: 12 µM

SMILES | Km ([1]; liver cytosol) | sulfonation rate ([9]; male mouse liver cytosol) | Km ([17]; liver cytosol) | sulfonation efficiency, intrinsic clearance (Vmax/Km) [2] | Vmax [2] | Km [3] | Vmax [4] | Km [5] | Vmax ([6]; dog liver cytosol) | Km [7] | Vmax [8] | Vmax [9] | Km [10] | Vmax [11] | Km [12] | Vmax [13] | Km [14] | intrinsic clearance (Vmax/Km) ([6]; dog liver cytosol) | sulfonation rate [13] | further results
O=c1ccc2ccc(O)cc2o1 [compound 1, 7-hydroxycoumarin, reference compound] | 0.18 µM | Slow |  | efficiently; also recorded: highest intrinsic clearance | 410 (360–460) nmol/(min * g protein) | 4.3 µM | 65 (29–100) nmol/(min * g protein) | 0.27 µM | 380 (330–440) nmol/(min * g protein) | 1.9 µM | 84 (26–140) nmol/(min * g protein) | 260 (210–320) nmol/(min * g protein) | 0.41 µM | 250 (200–310) nmol/(min * g protein) | 1.7 µM | 200 (100–310) nmol/(min * g protein) |  |  |  | sulfonation rate ([9]; female mouse liver cytosol): Slow
